Experimental data reported in patent US5473074A, “Adenosine diphosphoribose polymerase binding nitroso aromatic compounds useful as retroviral inactivating agents, anti-retroviral agents and anti-tumor agents-54” (priority 1992, dated 1995).
Entries after “also recorded” stand apart in the source; their conditions may differ. Read-outs that look alike come from different tables or passages of the source.

Legend:
ADPRT = conditions: cited from earlier work
cells / HIV = test: Anti-tumor / anti-HIV (biological) action, general statement
[1] = not told
calf thymus ADPRT = calf thymus ADPRT (Bos taurus, UniProt P18493); test: ADPRT polymerase activity inhibition/inactivation (I50)
Chain of calf thymus ADPRT (P18493 whole entry): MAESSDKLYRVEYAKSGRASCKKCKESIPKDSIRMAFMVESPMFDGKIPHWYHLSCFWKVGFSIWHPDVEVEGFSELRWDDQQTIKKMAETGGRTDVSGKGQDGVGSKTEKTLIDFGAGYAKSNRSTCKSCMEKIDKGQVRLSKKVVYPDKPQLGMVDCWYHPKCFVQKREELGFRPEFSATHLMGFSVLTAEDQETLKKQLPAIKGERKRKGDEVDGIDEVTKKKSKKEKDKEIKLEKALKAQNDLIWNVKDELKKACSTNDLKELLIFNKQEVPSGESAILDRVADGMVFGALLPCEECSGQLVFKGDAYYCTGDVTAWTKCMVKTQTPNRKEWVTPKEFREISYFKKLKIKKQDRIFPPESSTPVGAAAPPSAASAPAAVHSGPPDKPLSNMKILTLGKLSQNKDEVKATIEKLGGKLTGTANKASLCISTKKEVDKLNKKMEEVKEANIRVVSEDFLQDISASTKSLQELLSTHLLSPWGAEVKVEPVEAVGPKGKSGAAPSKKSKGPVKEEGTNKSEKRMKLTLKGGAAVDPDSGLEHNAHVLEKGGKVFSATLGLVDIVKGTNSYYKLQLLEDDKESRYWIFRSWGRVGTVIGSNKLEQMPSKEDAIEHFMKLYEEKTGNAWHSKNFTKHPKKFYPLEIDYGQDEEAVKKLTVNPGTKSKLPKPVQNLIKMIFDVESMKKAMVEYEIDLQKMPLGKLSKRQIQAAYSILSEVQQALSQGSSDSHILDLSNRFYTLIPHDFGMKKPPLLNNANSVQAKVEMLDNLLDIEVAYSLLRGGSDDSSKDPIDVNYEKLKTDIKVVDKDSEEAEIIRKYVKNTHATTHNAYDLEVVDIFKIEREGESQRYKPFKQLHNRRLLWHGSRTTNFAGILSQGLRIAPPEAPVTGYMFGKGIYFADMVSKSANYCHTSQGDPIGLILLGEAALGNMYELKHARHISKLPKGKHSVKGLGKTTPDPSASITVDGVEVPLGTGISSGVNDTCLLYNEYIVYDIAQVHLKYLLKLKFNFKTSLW
Method: The compounds of the subject invention were tested for their ability to inactivate the polymerase activity of adenosinediphosphoribosyl transferase (ADPRT). Assays were performed according to the method of Buki and Kun, Biochem. 27:5990-5995 (1988), using calf thymus ADPRT.
Assay conditions: ADPRT, 0.4 μg; coDNA, 4 μg; inhibitor diluted
between 0.8 and 600 μM, in 50 μl of 50 mM TrisHCl, 50 mM KCl, 5 mM
2mercaptoethanol, 0.5 mM EDTA, 0.1 mM NAD ([32Plabelled), pH 7.5.
Polymerization at 25° C. for 4 minutes.

HIV-1 = test: Anti-HIV action on stimulated human lymphoblasts, virus titer; assay type: cell-based; conditions: 30 min exposure, virus alone 5.25
Method: VIII. Anti-HIV action of NOBP, NOBA and NOQ on stimulated human lymphoblasts
Exposure to the two drugs was only for 30 minutes at the commencement of viral infection, and drugs were never re-added. The results given in Table III provide the ID50 of HIV titer 10 days after infection of cell cultures with HIV.

[2] = system: normal rhesus bone marrow stem cells; test: CFU stem cell toxicity assay, FIG. 5A
[3] = target: Zn(HIV1-F1), N-terminal CCHC zinc finger of the HIV-1 NC protein (Human immunodeficiency virus type 1 lw12.3 isolate, UniProt Q70622); conditions: Summers, et al.; cited from earlier work
[4] = system: cancer cells (855-2 and HL-60 leukemia, D32, D37 and CRL 7712 glioblastoma, 186 medulla tumor, L1210 murine leukemia, MDA-468 human breast tumor); test: Functions of cancer cells in absence or presence of compounds (FIGS. 4-9); assay type: cell-based
Method: (§1) Experiments were performed in which the functions of various cancer cells (855-2 and HL-60 leukemia cells, D32, D37 and CRL 7712 glioblastoma cell lines, 186 medulla tumor cell line, L1210 murine leukemia cell line, MDA-468 human breast tumor cell line) and normal cells (neutrophil leukocytes and bone marrow or peripheral blood stream cells) were assessed in the absence or presence of the compounds.

[5] = system: human leukemia cell lines (855-2, H9, HL-60, K562); test: [3H]thymidine uptake, human leukemia cell lines (FIG. 2); assay type: cell-based
Method: FIGS. 2A-2F are composite of graphs displaying the inhibitory effects of the ADRPT ligands on (FIG. 2A) 855-2 cells (a cell line of human B-cell lineage acute lymphoblastic leukemia), (FIG. 2B) H9 cells (a cell line of human T-cell lineage acute lymphoblastic leukemia), (FIG. 2C) HL-60 cells (a cell line of human acute nonlymphoblastic leukemia) and (FIG. 2D) K562 cells (a cell line of human chronic myelogenous leukemia). These cells were cultured while under the influence of the growth factors in 10% fetal bovine serum (FCS), whereas in (FIG. 2E) and (FIG. 2F) the 855-2 cells were cultured in the presence of autocrine growth factor activity (AGF) or low molecular weight-B-cell growth factor (BCGF, a T-cell derived lymphokine), respectively.

H9 cells = test: [3H]thymidine uptake, H9 cells; assay type: cell-based, human; conditions: 10% FCS
K562 cells = test: [3H]thymidine uptake, K562 cells; assay type: cell-based, human; conditions: 10% fetal bovine serum
855-2 cells [6] = test: [3H]thymidine uptake / growth, 855-2 cells; assay type: cell-based, human
855-2 cells [7] = test: Colony formation (CFU) in semi-solid medium, 855-2; assay type: cell-based, human; conditions: single cells in semi-solid medium
HL-60 cells = test: Colony formation (CFU) in semi-solid medium, HL-60; assay type: cell-based, human; conditions: single cells in semi-solid medium
[8] = system: normal human stem cells (PBSC); test: Colony formation (CFU-GM) of normal human stem cells (PBSC), FIG. 5B; assay type: cell-based; conditions: 0, 2, 4, 8 and 10 μM
855-2 leukemia cells = test: 855-2 growth inhibition, comparison with vincristine (FIG. 7); assay type: cell-based, human
Method: Vincristine, a highly toxic chemotherapeutic compound, is currently used in the treatment of leukemia and other malignancies. […] Vincristine was tested in doses of 0.1, 1, 10 and 100 μM.

855-2 cells [9] = test: MTT assay, cytocidal activity; assay type: cell-based, human; conditions: 10 μM, 100,000 cells/ml
Method: MTT (3-[4,5-[…]]-2,5-diphenyltetrazolium bromide) at 1 mg/ml was then added for 16 hours. The absorbance of the pelleted cell was then measured at 550 nm after adding DMSO to solubilze the cells.

[10] = system: normal cells (neutrophil leukocytes and bone marrow or peripheral blood stem cells)
Method: as §1

[11] = system: human peripheral blood neutrophil leukocytes
[12] = system: human peripheral blood neutrophil leukocytes; test: Superoxide generation by human neutrophils; conditions: 10 μM; 10^5 PMN + PMA (control 55.9 ± 7.7)
[13] = system: malignant transformation / neoplasia; conditions: in vitro and in vivo; Tseng, et al.; cited from earlier work

## 3-aminonaphthylhydrazide
ADPRT
  inhibition of ADPRT polymerase activity, in words: known to inhibit ADPRT polymerase activity

## O=Nc1ccc2oc(=O)ccc2c1I [5-I-6-NO-1,2-benzopyrone, 5-iodo-6-nitroso-1,2-benzopyrone]
Cells / HIV; vs 6-NO-1,2-benzopyrone
  biological action relative to 6-NO-1,2-benzopyrone: 10 times weaker
[1]
  permeation, in words: poor permeant molecule
Calf thymus ADPRT
  ADPRT inhibition, in words: relatively poor inhibitor of ADRPT
  IC50: 400 µM

## Nc1ccc2oc(=O)ccc2c1 [ABP, 6-amino-1,2-benzopyrone]
HIV-1; 500 μM
  Virus Titer (log ID50), 10 days: 4.50 log ID50
ADPRT; site that also binds to DNA, Hakam, et al.
  ADPRT binding, in words: binds specifically to ADRPT at the site that also binds to DNA
[2]; 1 mM
  CFU stem cell toxicity, in words: toxic at the tested given doses
Calf thymus ADPRT
  IC50: 370 µM

## O=C(O)CN(CCN(CC(=O)O)CC(=O)O)CC(=O)O [EDTA]
[3]
  molar excess required to remove zinc from Zn(HIV-1-F1): 10 -fold molar excess

## Nc1ccc2oc(=O)ccc2c1I [IABP, 5-iodo-6-amino-1,2-benzopyrone]
HIV-1; 250 μM
  Virus Titer (log ID50), 10 days: 4.66 log ID50
ADPRT
  inhibition of ADPRT polymerase activity, in words: known ADPRT polymerase activity inhibitors
[2]; 250 μM
  CFU stem cell toxicity, in words: toxic at the tested given doses
Calf thymus ADPRT
  IC50: 41 µM

## O=c1ccc2cc([N+](=O)[O-])ccc2o1 [NO2 BP, 6-nitro-1,2-benzopyrone]
[4]
  activity against tumor cells, in words: weakly active
[4]; listed as 6-nitro derivative
  activity against tumor cells, in words: almost ineffective (against tumor cells)
HIV-1; 250 μM
  Virus Titer (log ID50), 10 days: 4.93 log ID50

## O=Nc1ccc2oc(=O)ccc2c1 [NOBP, 6-nitroso-1,2-benzopyrone]
[5]; 10 μM, 855-2, H9, HL-60, K562 cells
  inhibition of 3H-thymidine uptake, in words: powerfully inhibited 3H-thymidine uptake
[5]; each of the cell lines tested
  molar concentrations needed to inhibit 3H-thymidine uptake, in words: able to inhibit 3H-thymidine uptake in lower molar concentrations than the other compounds
H9 cells; 100 μM
  inhibition of thymidine uptake, H9: almost complete inhibition
H9 cells; Homo sapiens, H9, 10 μM
  inhibition at 10 µM: ~30%
K562 cells; 100 μM
  inhibition of cell growth (thymidine uptake), K562: almost complete inhibition
K562 cells
  relative potency, K562: most potent inhibitors of cell growth; also recorded: almost as potent as NOQ
855-2 cells [6]; 1 μM, 10% fetal bovine serum
  relative inhibition of thymidine uptake, 855-2: somewhat more inhibition than NOBA
855-2 cells [6]; 10 μM, 10% fetal bovine serum
  inhibition of thymidine uptake, 855-2: almost complete inhibition
855-2 cells [6]; 10 μM, increasing FCS
  growth arrest of 855-2 cells at increasing serum concentration: Growth arrest occurs irrespective of the concentration of FCS
855-2 cells [6]; 10% fetal bovine serum
  relative potency, 855-2: potent inhibitory effects regardless of the source of growth factor activity
855-2 cells [7]
  colony formation, 855-2, in words: inhibit the ability of human leukemic cells (855-2 and HL-60) to form colonies
HL-60 cells
  colony formation, HL-60, in words: inhibit the ability of human leukemic cells (855-2 and HL-60) to form colonies
[4]
  activity against tumor cells, in words: highly effective (against tumor cells)
[8]
  cytotoxicity on CFU-GM of PBSC, in words: Toxicity was not detected
855-2 leukemia cells; vs equal concentration of vincristine
  potency relative to vincristine: about 10 times more potent
HIV-1; 10 μM
  Virus Titer (log ID50), 10 days: 2.01 log ID50
855-2 cells [9]
  killing of 855-2 cells (MTT), in words: complete killing
Cells / HIV
  anti-tumor and anti-HIV activity, in words: highly active as anti-tumor and anti-HIV molecules
Cells / HIV; exposure as short as 30 minutes
  effectiveness after short exposure of cells: effective even after exposure of cells for a period as short as 30 minutes
[10]
  effect on normal stem cell colony formation (FIG. 5), in words: minimal effect on normal cells
  effect on viability of normal cells, in words: not to affect adversely the viability of normal cells
  toxicity to normal cells, in words: not toxic to normal cells
[11]
  superoxide generation, in words: Only minor reductions in superoxide generation
[12]
  superoxide generation by human neutrophils (mean + S.D., n = 11): 34.1 ± 14.1 nmol O2^- /hr/10^5 cells
Calf thymus ADPRT
  IC50: 40 µM

## NC(=O)c1ccccc1 [benzamide]
ADPRT
  inhibition of ADPRT polymerase activity, in words: known to inhibit ADPRT polymerase activity

## O=c1ccc2ccccc2o1 [coumarin (1,2-benzopyrone), 1,2-benzopyrone]
ADPRT
  inhibition of ADPRT polymerase activity, in words: known to inhibit ADPRT polymerase activity
ADPRT; listed as 1,2-benzopyrone (coumarin)
  inhibition of ADPRT polymerase activity, in words: inhibitory ligand of adenosinediphosphoribosyl transferase (ADPRT)
[13]
  anti-transforming and anti-neoplastic effect, in words: anti-transforming and anti-neoplastic effect

## c1ccc2cnccc2c1 [isoquinoline]
ADPRT
  inhibition of ADPRT polymerase activity, in words: known to inhibit ADPRT polymerase activity

## O=c1c(O)c(-c2ccc(O)c(O)c2)oc2cc(O)cc(O)c12 [quercetin]
ADPRT
  inhibition of ADPRT polymerase activity, in words: known to inhibit ADPRT polymerase activity

## CC[C@]1(O)C[C@H]2CN(CCc3c([nH]c4ccccc34)[C@@](C(=O)OC)(c3cc4c(cc3OC)N(C=O)[C@H]3[C@@](O)(C(=O)OC)[C@H](OC(C)=O)[C@]5(CC)C=CCN6CC[C@]43[C@@H]65)C2)C1 [vincristine, reference compound]
855-2 leukemia cells; in vitro
  concentration required to produce the same level of inhibition as 10 μM NOBP: 100 µM
